Experimental data: patent US11547690B1, “Chemotherapeutic self-nanoemulsifying drug delivery systems and uses thereof” (KING ABDULAZIZ UNIVERSITY, priority 2022, dated 2023)
Converted amounts (≈) assume the structure as drawn. Where two headings read alike, the source gives them in different places.

Columns and labels:
[1] = cited from earlier work
[2] = Equilibrium solubility evaluation in lipids and cosolvents; format: physicochemical; conditions: for solubility at 72 h: 37 °C, thermodynamic from solid, read-out: solubility of PTX
Experimental: Solubility evaluation of PTX was carried out in various oils and cosolvents till attaining equilibrium by addition of excess quantity of drug to 1 gm of each of the excipient in culture vials and mixed well using vortex mixer (Remi Instruments, Mumbai, India). The sealed vials were kept on water bath shaker at 37±0.5° C. for 72 h for 150 strokes per minute. After specified time period, the samples were centrifuged at 3,000 rpm (402.5×g) for 15 minutes using a laboratory centrifuge (Remi Instruments, Mumbai, India). Drug was extracted in acetonitrile and supernatant fraction was filtered through 0.45 μm membrane filter, suitably diluted and analyzed by previously developed HPLC method.

solubility at 72 h ([2]; aqueous with cosolvent or surfactant or cyclodextrin, in Tween® 80, 37±0.5° C., 72 h): 78 mg/mL (≈ 91.3 mM) | solubility at 72 h ([2]; aqueous with cosolvent or surfactant or cyclodextrin, in surfactin): 106 mg/mL (≈ 124 mM) | solubility at 72 h ([2]; organic solvent or mixture, in Transcutol® HP, 37±0.5° C., 72 h): 235 mg/mL (≈ 275 mM) | solubility of PTX ([2]; in 1:1 ratio mixture of ethyl oleate:Plurol® Oleique, 37±0.5° C., 72 h): 198.5 mg/mL
SMILES: CC(=O)O[C@H]1C(=O)[C@@]2(C)[C@H]([C@H](OC(=O)c3ccccc3)[C@]3(O)C[C@H](OC(=O)[C@H](O)[C@@H](NC(=O)c4ccccc4)c4ccccc4)C(C)=C1C3(C)C)[C@]1(OC(C)=O)CO[C@@H]1C[C@@H]2O [PTX, Paclitaxel]
oral bioavailability [1]: 5%
